Data from US20260000763A1, “Methods of Manufacturing Therapeutic Cells” (The Board of Trustees of the Leland Stanford Junior …, priority 2022, published 2026).

Assays:
HA-CAR T cells = test: Mass cytometry single cell metabolic regulome profiling; type: cell-based, human; conditions: CyTOF, day 14
Text: INO cultured cells also expressed higher levels of enzymes associated with glutaminolysis (GLS, GPT2), and TCA activity (IDH1, IDH2, CS, SDHA), consistent with INO induced glutamine catabolismdriving TCA through anapleurosis (FIG. 11D). Proteins of complex I and complex V of the electron transport chain were also elevated, consistent with higher oxidative phosphorylation.

[1] = tested on: HA-CAR T cells and CD19-CAR T cells; test: Seahorse analysis of mitochondrial fitness; cell size; type: cell-based
Experimental: To measure mitochondrial fitness in CAR T cells cultured in the presence or absence of INO, Seahorse analysis was performed.

GD2.bbz-CAR T cells = GD2.bbz-CAR T cells manufactured in GMP-grade AIM 5 media with increasing inosine; type: cell-based
Text: FIG. 8B: Expansion rate of GD2.bbz-CAR T cells between day 3 and day 6 post-activation of CAR T cells grown in AIM 5 containing indicated concentration of inosine. N=4 donors from independent experiments.
FIG. 8C: Viability of GD2.bbz-CAR T cells cultured for 4 days in AIM 5 containing indicated concentration of inosine at day 6 post-activation. N=4 donors from independent experiments.
FIG. 8D: GD2.bbz-CAR T cells grown in media containing indicated inosine concentration between day 3 and day 8 post-activation and stimulated with 143b or Nalm6-GD2 tumor. IFNγ secretion after 24 hrs of co-culture was measured. Data are mean+s.d. of duplicate or triplicate wells. Representative of n=2 donors shown.
Next, to test this therapeutic window in the clinical context, GD2-CAR T cells were manufactured and determined to have anti-tumor activity in diffuse midline gliomas (DMGs) using GMP-grade AIM 5 media with increasing concentrations of INO (FIG. 8A).

[2] = tested on: Nalm6-GD2, 143b and CHL255 tumor cell lines; test: Co-culture of HA CAR T cells with GD2-expressing tumor lines: IncuCyte killing, IL-2 and IFNγ secretion; type: cell-based, human; conditions: for antigen induced IFNγ secretion: Nalm6-GD2 24 hrs, D14 cells, INO in presence or absence of glucose
CD19.28 CAR T cells = CD19.28 CAR T cells expanded in inosine vs glucose media: Annexin V, CAR expression, CD4/CD8, memory phenotype (flow cytometry); type: cell-based
Experimental: In this example, CD19.28 CAR T cells were cultured in regular complete RPMI media until day 4, and then the cells were split between 11 mM glucose-(CTR) or 11 mM inosine-(INO) containing media (unless stated otherwise). A: Annexin 5 staining was performed at day 17 post-activation. Representative histograms of n=3 donors are shown. B: Surface CD19.28 CAR expression at day 14 post-activation. C: MFI of CAR molecules on CD19.28z CAR T cell surface at day 14 post activation. D: Ratio of CD4+vs CD8+CD19.28 CAR T cells at day 14 post-activation. E: CD19.28z CAR T cells were co-cultured with cells of the Nalm6 tumor line (1:8 E: T) for 75 hrs in an IncuCyte assay. […] Representative donor of n=3 is shown. F: Control media was replaced by INO+ media at the indicated day post activation. At day 14, cells were stimulated with Nalm6 tumor line, and IL-2 and IFNγ secretion was assessed by ELISA. […] For A and B, P values were determined by paired two-tailed t-tests. […] For F and G, P values were determined by unpaired two-tailed t-tests.
In this example, CAR T cells were cultured in control media until day 4 post activation, followed by continued expansion in regular or inosine-containing media. Phenotype of the cells was assessed by flow cytometry at day 21 post activation. A: Frequency of CD62L+ and CCR7+HA CAR+ T cells in 8 different donors. Representative histograms are shown. B: Relative frequency of central memory (CM), naïve, terminally differentiated (TEMRA) and effector memory (EM) HA CAR T cells. N=8 donors. C: Frequency of CD62L+ and CCR7+CD19.28 CAR+ T cells in 8 different donors. Representative histograms are shown. D: Relative frequency of central memory (CM), naïve, terminally differentiated (TEMRA) and effector memory (EM) CD19.28 CAR T cells. N=8 donors.
In this example, CD19.28 CAR T cells were generated using a retroviral vector and at day 4 post-activation, the cells were split between 11 mM glucose-(CTR) or 11 mM inosine-(INO) containing media (unless stated otherwise). Tested first was whether the absence of glucose in the culture media has a negative effect on the viability of CAR T cells.

GD2-CAR T cells = GD2-CAR T cells manufactured in TexMACS with increasing concentrations of INO; type: cell-based
Experimental: FIG. 13A-13H: Clinical scale manufacturing of clinical grade GD2-CAR T cells using media containing inosine, improves CAR product quality. A: Schematic of large-scale manufacturing of GD2.bbz-CAR+ T cells in a semi-closed G-Rex system in glucose-or inosine-containing media. 7 days post-activation, transduction efficiency, percentage of viable cells, and CD4/CD8 ratio of GD2+ cells were assessed by flow cytometry. […] B: Expansion of total viable T cells manufactured in control (black) vs. inosine (green)-containing media and (Right) corresponding number of CAR+ cells at day 7. […] C: IL-2 and IFNg secretion by CAR T cells stimulated for 24 hrs with 143b, mg63.3 or Nalm6-GD2 tumor lines. […] D: NSG mice were injected with 1×10^6 Nalm6 leukemia cells. On day 3 post-tumor injection, 2×10^6 of mock or GD2.bbz-CAR T cells manufactured in the presence of inosine or in regular media were transferred intravenously. Tumor growth was monitored by bioluminescent imaging. […] P values determined at day 43 by using Mann-Whitney test. […] E: Concentration of CD45+ T cells detected in blood of mice at D33 post-CAR T cell injection. […] F: Schematic of the experimental design. G: GD2.bbz-CAR T cells grown in media containing indicated inosine concentration between day 3 and day 10 post-activation and stimulated with 143b tumor. IL-2 and IFNg secretion after 24 hrs of co-culture was measured. Data are mean±s.d. of duplicate or triplicate wells. Representative of n=3 donors shown. […] Reprograming is due to an increase in glutaminolysis and polyamine synthesis and downregulation of CD73, FOXP3, A2aR and c-AMP response transcription factors.
Finally, to test compatibility of adding INO to GMP-grade culture media that contains glucose, GD2-CAR T cells were manufactured in TexMACS™ with increasing concentrations of INO (FIG. 13F).

[3] = day 14, 11 mM inosine vs glucose

SMILES: O=c1[nH]cnc2c1ncn2[C@@H]1O[C@H](CO)[C@@H](O)[C@H]1O [inosine, Inosine]
- enzymes associated with glutaminolysis (GLS, GPT2) and TCA activity (IDH1, IDH2, CS, SDHA) (HA-CAR T cells): higher levels
- expression of CAT2 (HA-CAR T cells): increased
- proteins of complex I and complex V of the electron transport chain (HA-CAR T cells): elevated
- metabolic profile of non-tonic signaling CD19-CAR T cells ([1]; Seahorse, day 11): memory-like metabolic profile
- basal oxygen consumption rate (Basal OCR) ([1]; day 11, control vs INO cultured cells): did not differ
- size of the cells ([1]; day 13 post-activation): increased size
- cell proliferation (GD2.bbz-CAR T cells; AIM 5 with increasing INO, day 3 to day 6): significantly decreased cell proliferation
- CAR T cell viability (GD2.bbz-CAR T cells; AIM 5 with increasing INO, day 6): no significant changes
- secretion of IFNγ (GD2.bbz-CAR T cells; challenged with 143b (low GD2) or Nalm6-GD2 (high GD2), 24 hrs): increase in secretion of IFNγ
- cytotoxic function ([2]; INO added on day 4, 7, 10 or 14, 143b 1:1 E:T from day 15): increased cytotoxic function
- antigen induced IFNγ secretion [2]: significantly enhanced antigen induced IFNγ secretion
- antigen induced IFNγ secretion ([2]; listed as INO): enhanced antigen induced IFNγ secretion
- tumor killing and cytokine secretion after multiple stimulations ([2]; serial challenge with Nalm6-GD2 1:1, glucose present or absent during manufacturing): enhanced tumor killing and cytokine secretion
- percentage of live cells (CD19.28 CAR T cells; CD19.28 CAR T cells, 11 mM inosine vs 11 mM glucose, day 17): increase
- frequency of Annexin V+ apoptotic cells (CD19.28 CAR T cells; CD19.28 CAR T cells, 11 mM inosine without glucose from day 4, vs 11 mM glucose, day 17 post-activation): significantly lower frequency
- CAR MFI (CD19.28 CAR T cells; CD19.28z CAR T cell surface, day 14, 11 mM inosine vs glucose): increased
- CD4/CD8 ratio (CD19.28 CAR T cells; [3]): neither percentage of CAR+ T cells nor CD4/CD8 ratio was affected
- percentage of CAR+ T cells (CD19.28 CAR T cells; [3]): neither percentage of CAR+ T cells nor CD4/CD8 ratio was affected
- antigen induced cytokine production (GD2-CAR T cells; INO 11 mM vs lower concentrations): trend toward greater antigen induced cytokine production
- cell proliferation (GD2-CAR T cells; TexMACS (contains glucose) with increasing INO): significantly decreased cell proliferation
- CAR T cell viability (GD2-CAR T cells; TexMACS with increasing INO): no changes
- secretion of IL-2 and IFNg (GD2-CAR T cells; challenged with 143b cells, 24 hrs, INO day 3 to day 10): dose-dependent increase
- CD62L expression (GD2-CAR T cells; vs control cells): increased CD62L expression
